PubChem BioAssay (NCI)
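Compound exposure: 48 hours, 5 concentrations, 96-well plates. TGI: concentration producing complete growth inhibition.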

Tests used:
Experiment in all cases: growth of human tumour cells (NCI), 48 h
A498 renal = system: A498 renal
NCI/ADR-RES ovarian = system: NCI/ADR-RES ovarian
K-562 leukemia = system: K-562 leukemia
SR leukemia = system: SR leukemia
HOP-62 NSCLC = system: HOP-62 NSCLC
U251 CNS = system: U251 CNS
HCC-2998 colon = system: HCC-2998 colon
SK-MEL-5 melanoma = system: SK-MEL-5 melanoma
HS 578T breast = system: HS 578T breast

SMILES | TGI (A498 renal) [µM] | TGI (NCI/ADR-RES ovarian) [µM] | TGI (K-562 leukemia) [µM] | TGI (SR leukemia) [µM] | TGI (HOP-62 NSCLC) [µM] | TGI (U251 CNS) [µM] | TGI (HCC-2998 colon) [µM] | TGI (SK-MEL-5 melanoma) [µM] | TGI (HS 578T breast) [µM]
CCCCC(=O)Nc1ccc2cc(C(=O)OC)c(=O)[nH]c2n1 | > 100 | > 100 | > 100 | > 100 | > 100 | > 100 | > 100 | > 100 | –
Brc1ccc2c(c1)[C@H]1CCc3c([nH]c4ccccc34)[C@H]1N2 | – | 29.6 | 39.8 | 33.1 | 25.6 | 21.7 | 25.5 | 12.1 | 46.5
O=c1[nH]nc(Nc2ccccc2)c2nnn(Cc3ccccc3)c12 | > 100 | > 100 | > 100 | > 100 | 24 | > 100 | > 100 | > 100 | 90.4
Clc1ccc2nc3c(c(-c4ccccc4)nn3-c3ccccc3)c(-c3ccccc3)c2c1 | – | > 100 | > 100 | > 100 | > 100 | > 100 | > 100 | > 100 | > 100
CCOC(=O)C(NC(=O)Nc1ccccc1)(Nc1cccc(Cl)c1)C(F)(F)F (stereo not drawn) | > 100 | > 100 | > 100 | > 100 | > 100 | > 100 | > 100 | > 100 | > 78.4
Cc1cc2nc(N)n[n+]([O-])c2cc1C | > 100 | > 100 | > 100 | > 100 | > 100 | > 100 | > 100 | > 100 | > 100
c1ccc2c3c(c(N4CCNCC4)nc2c1)CCCC3 | 27.6 | 27.3 | > 100 | > 100 | 48.4 | 26.2 | 4.15 | 24.3 | > 100
Oc1cccc(-c2cc(=S)ss2)c1 | – | 53.7 | 60.6 | 11.9 | 34.3 | 28.5 | 32.4 | 19.7 | 36.9
O=C1N2CCN=C2c2ccccc2C1(O)c1ccccc1 (stereo not drawn) | > 100 | > 100 | > 100 | > 100 | > 100 | > 100 | > 100 | > 100 | > 100
COc1c2c(cc3oc(=O)ccc13)OC(C)(C)C=C2 | – | 70.6 | > 125 | 44.6 | > 125 | 78.5 | 46.3 | 41.8 | > 125
O=C(CSCC(=O)N/N=C/c1ccc(F)cc1)N/N=C/c1ccc(F)cc1 | > 100 | > 100 | > 100 | > 100 | > 100 | > 100 | > 100 | > 100 | > 100
CCOC(=O)Cn1c(=O)c2cc(C)cc3c(Cl)nc4c(OC)c(OC)cc1c4c32 | – | > 100 | > 100 | > 100 | > 100 | > 100 | > 100 | > 100 | 74.7
COc1cc(C(C)(C)C)c(OC(=O)/C=C/C(=O)O/C=C/[N+](=O)[O-])c(C(C)(C)C)c1 | 96.6 | 57.8 | > 100 | > 100 | > 100 | > 100 | > 100 | > 100 | 63.9
c1ccc2c(c1)N=c1ccccc1=P21c2ccccc2Nc2ccccc21 | 5.56 | > 100 | > 100 | 1.75 | 8.32 | 11.3 | 4.06 | 0.42 | 3.89
COc1cc(CNc2nc3cc(C(F)(F)F)ccc3nc2C(=O)O)cc(OC)c1OC | 60.7 | 76.4 | 61 | > 100 | 59.3 | 31.2 | > 100 | – | 57
COC(=O)[C@@]12CC3CN(Cc4c1[nH]c1ccccc41)C2CC3=O | – | > 100 | > 100 | – | > 100 | > 100 | > 100 | – | –
O=C(NC12CC3CC(CC(C3)C1)C2)n1cnc2cncnc21 | > 100 | > 100 | > 100 | 62.4 | 51.5 | > 100 | > 100 | 30.6 | > 100
CC1CN=C(c2ccc3c(c2)Cc2cc(C4=NCC(C)N4)ccc2-3)N1 (stereo not drawn) | > 100 | > 100 | > 100 | > 100 | > 100 | 46.7 | 39.2 | > 100 | > 100
O=C(NCCc1ccc(F)cc1)c1cc(/C=C/c2cc(O)ccc2O)ccc1O | 14.1 | 10.7 | > 29.2 | > 30 | 14.8 | 4.49 | 26 | 6.35 | > 100
C/C(=C/CC[C@](C)(OC1OC(CO)C(O)C(O)C1OC1OC(C)C(O)C(O)C1O)[C@H]1CC[C@]2(C)[C@@H]1CC[C@@H]1[C@@]3(C)CC[C@H](O)C(C)(C)[C@@H]3C[C@H](O)[C@]12C)CO (stereo partly drawn) | > 100 | > 100 | > 100 | > 100 | > 100 | > 100 | – | > 100 | > 100
CC(C)=CCC[C@@H](C)c1c(O)c(O)c(C)c2nc3ccccc3nc12 | 7.97 | 7.48 | > 32.5 | > 100 | 8.48 | 22.8 | 22.2 | 10.6 | 8.37
O=C(O)CC(Cc1ccccc1)C(=O)O (stereo not drawn) | > 100 | > 100 | > 100 | – | > 100 | > 100 | > 100 | > 100 | > 100
CCCc1c(OC)c(O)c2c(=O)cc(OC)c3c4c(OC)cc(=O)c5c(O)c(OC)c(CCC)c(c1c23)c54 | 31 | 25.1 | > 100 | > 100 | 18.9 | 6.41 | 34.9 | 11.5 | –
